# Source: patent publication US6444615B1, “Herbicidal imidazolidinetrione and thioxo-imidazolidinediones” (Dow AgroSciences LLC, priority 2000, dated 2002)
# Tested on: Hairy Beggarticks (Bidens pilosa)
# Assay: Herbicidal pre-emergence test, Hairy Beggarticks
# Type: in vivo
# Conditions: 1200 g/ha, scale of 0-100, 0 no activity, 100 total control, about two or four weeks after application
# Protocol: (§1) Listed below, a typical planting design for the test, consisting of four monocot weeds, four dicot weeds and one sedge weed. [table] For each compound, evaluation tests were carried out according to the following procedures: For preemergence tests, immediately after planting, the test compound was sprayed directly onto the soil surface. The flats or pots were placed in the greenhouse and then watered. For postemergence tests, seeds were allowed to germinate and grow for 10 to 21 days before application. The test plants were selected for uniformity, size and stage of development. The test plants were then treated with the test compound, returned to the greenhouse and watered. Untreated plants were used as a comparison. The compound to be evaluated was dissolved in an appropriate solvent, usually acetone, or a formulation of the evaluated compounds as described above, was added to the water, and sprayed over the flats or pots using a carrier volume equivalent to 187 or 468 liters per hectare to give a rate of application in grams per hectare (g/ha). About two or four weeks after application of the test compounds, the state of the plant was observed. Each species was evaluated on a scale of 0-100 in which 0 equals no activity and 100 equals total control.
row,Structure (SMILES),Herbicidal Activity BID (pre-emergence)
1,CCCCN1C(=O)C(=O)N(c2cc(OC3CCCC3)c(Cl)cc2F)C1=O [Compound 10],0
2,C#CCN1C(=O)COc2cc(F)c(N3C(=O)C(=O)N(CCC)C3=S)cc21 [Compound 25],100/100
3,C#CCN1C(=O)COc2cc(F)c(N3C(=O)C(=O)N(C)C3=O)cc21 [Compound 22],95

# Tested on: Hairy Beggarticks (Bidens pilosa)
# Assay: Herbicidal post-emergence test, Hairy Beggarticks
# Type: in vivo
# Conditions: 1200 g/ha, scale of 0-100, 0 no activity, 100 total control, about two or four weeks after application
# Protocol: as §1
row,Structure (SMILES),Herbicidal Activity BID (post-emergence)
1,CCCCN1C(=O)C(=O)N(c2cc(OC3CCCC3)c(Cl)cc2F)C1=O [Compound 10],60
2,C#CCN1C(=O)COc2cc(F)c(N3C(=O)C(=O)N(CCC)C3=S)cc21 [Compound 25],100/100
3,C#CCN1C(=O)COc2cc(F)c(N3C(=O)C(=O)N(C)C3=O)cc21 [Compound 22],80

# Tested on: Nightshade, (black) (Solanum nigrum)
# Assay: Herbicidal pre-emergence test, Nightshade (black)
# Type: in vivo
# Conditions: 1200 g/ha, scale of 0-100, 0 no activity, 100 total control, about two or four weeks after application
# Protocol: as §1
row,Structure (SMILES),Herbicidal Activity NS (pre-emergence)
1,CCCCN1C(=O)C(=O)N(c2cc(OC3CCCC3)c(Cl)cc2F)C1=O [Compound 10],0
2,C#CCN1C(=O)COc2cc(F)c(N3C(=O)C(=O)N(CCC)C3=S)cc21 [Compound 25],100/100
3,C#CCN1C(=O)COc2cc(F)c(N3C(=O)C(=O)N(C)C3=O)cc21 [Compound 22],95

# Tested on: Nightshade, (black) (Solanum nigrum)
# Assay: Herbicidal post-emergence test, Nightshade (black)
# Type: in vivo
# Conditions: 1200 g/ha, scale of 0-100, 0 no activity, 100 total control, about two or four weeks after application
# Protocol: as §1
row,Structure (SMILES),Herbicidal Activity NS (post-emergence)
1,CCCCN1C(=O)C(=O)N(c2cc(OC3CCCC3)c(Cl)cc2F)C1=O [Compound 10],100
2,C#CCN1C(=O)COc2cc(F)c(N3C(=O)C(=O)N(CCC)C3=S)cc21 [Compound 25],100/100
3,C#CCN1C(=O)COc2cc(F)c(N3C(=O)C(=O)N(C)C3=O)cc21 [Compound 22],100

# Tested on: Smartweed, (pale) (Polygonum lapathifolium)
# Assay: Herbicidal pre-emergence test, Smartweed (pale)
# Type: in vivo
# Conditions: 1200 g/ha, scale of 0-100, 0 no activity, 100 total control, about two or four weeks after application
# Protocol: as §1
row,Structure (SMILES),Herbicidal Activity SMT (pre-emergence)
1,CCCCN1C(=O)C(=O)N(c2cc(OC3CCCC3)c(Cl)cc2F)C1=O [Compound 10],0
2,C#CCN1C(=O)COc2cc(F)c(N3C(=O)C(=O)N(CCC)C3=S)cc21 [Compound 25],100/100
3,C#CCN1C(=O)COc2cc(F)c(N3C(=O)C(=O)N(C)C3=O)cc21 [Compound 22],85

# Tested on: Smartweed, (pale) (Polygonum lapathifolium)
# Assay: Herbicidal post-emergence test, Smartweed (pale)
# Type: in vivo
# Conditions: 1200 g/ha, scale of 0-100, 0 no activity, 100 total control, about two or four weeks after application
# Protocol: as §1
row,Structure (SMILES),Herbicidal Activity SMT (post-emergence)
1,CCCCN1C(=O)C(=O)N(c2cc(OC3CCCC3)c(Cl)cc2F)C1=O [Compound 10],30
2,C#CCN1C(=O)COc2cc(F)c(N3C(=O)C(=O)N(CCC)C3=S)cc21 [Compound 25],100/100
3,C#CCN1C(=O)COc2cc(F)c(N3C(=O)C(=O)N(C)C3=O)cc21 [Compound 22],90

# Tested on: Velvetleaf (Abutilon theophrasti)
# Assay: Herbicidal pre-emergence test, Velvetleaf
# Type: in vivo
# Conditions: 1200 g/ha, scale of 0-100, 0 no activity, 100 total control, about two or four weeks after application
# Protocol: as §1
row,Structure (SMILES),Herbicidal Activity VEL (pre-emergence)
1,CCCCN1C(=O)C(=O)N(c2cc(OC3CCCC3)c(Cl)cc2F)C1=O [Compound 10],0
2,C#CCN1C(=O)COc2cc(F)c(N3C(=O)C(=O)N(CCC)C3=S)cc21 [Compound 25],100/100
3,C#CCN1C(=O)COc2cc(F)c(N3C(=O)C(=O)N(C)C3=O)cc21 [Compound 22],40

# Tested on: Velvetleaf (Abutilon theophrasti)
# Assay: Herbicidal post-emergence test, Velvetleaf
# Type: in vivo
# Conditions: 1200 g/ha, scale of 0-100, 0 no activity, 100 total control, about two or four weeks after application
# Protocol: as §1
row,Structure (SMILES),Herbicidal Activity VEL (post-emergence)
1,CCCCN1C(=O)C(=O)N(c2cc(OC3CCCC3)c(Cl)cc2F)C1=O [Compound 10],100
2,C#CCN1C(=O)COc2cc(F)c(N3C(=O)C(=O)N(CCC)C3=S)cc21 [Compound 25],100/100
3,C#CCN1C(=O)COc2cc(F)c(N3C(=O)C(=O)N(C)C3=O)cc21 [Compound 22],100

# Tested on: Barnyardgrass (Echinochloa crusgalli)
# Assay: Herbicidal pre-emergence test, Barnyardgrass
# Type: in vivo
# Conditions: 1200 g/ha, scale of 0-100, 0 no activity, 100 total control, about two or four weeks after application
# Protocol: as §1
row,Structure (SMILES),Herbicidal Activity BYG (pre-emergence)
1,CCCCN1C(=O)C(=O)N(c2cc(OC3CCCC3)c(Cl)cc2F)C1=O [Compound 10],0
2,C#CCN1C(=O)COc2cc(F)c(N3C(=O)C(=O)N(CCC)C3=S)cc21 [Compound 25],100
3,C#CCN1C(=O)COc2cc(F)c(N3C(=O)C(=O)N(C)C3=O)cc21 [Compound 22],40

# Tested on: Barnyardgrass (Echinochloa crusgalli)
# Assay: Herbicidal post-emergence test, Barnyardgrass
# Type: in vivo
# Conditions: 1200 g/ha, scale of 0-100, 0 no activity, 100 total control, about two or four weeks after application
# Protocol: as §1
row,Structure (SMILES),Herbicidal Activity BYG (post-emergence)
1,CCCCN1C(=O)C(=O)N(c2cc(OC3CCCC3)c(Cl)cc2F)C1=O [Compound 10],40
2,C#CCN1C(=O)COc2cc(F)c(N3C(=O)C(=O)N(CCC)C3=S)cc21 [Compound 25],30
3,C#CCN1C(=O)COc2cc(F)c(N3C(=O)C(=O)N(C)C3=O)cc21 [Compound 22],60

# Tested on: Crabgrass (large) (Digitaria sanguinalis)
# Assay: Herbicidal pre-emergence test, Crabgrass (large)
# Type: in vivo
# Conditions: 1200 g/ha, scale of 0-100, 0 no activity, 100 total control, about two or four weeks after application
# Protocol: as §1
row,Structure (SMILES),Herbicidal Activity CRB (pre-emergence)
1,CCCCN1C(=O)C(=O)N(c2cc(OC3CCCC3)c(Cl)cc2F)C1=O [Compound 10],0
2,C#CCN1C(=O)COc2cc(F)c(N3C(=O)C(=O)N(CCC)C3=S)cc21 [Compound 25],100
3,C#CCN1C(=O)COc2cc(F)c(N3C(=O)C(=O)N(C)C3=O)cc21 [Compound 22],100

# Tested on: Crabgrass (large) (Digitaria sanguinalis)
# Assay: Herbicidal post-emergence test, Crabgrass (large)
# Type: in vivo
# Conditions: 1200 g/ha, scale of 0-100, 0 no activity, 100 total control, about two or four weeks after application
# Protocol: as §1
row,Structure (SMILES),Herbicidal Activity CRB (post-emergence)
1,CCCCN1C(=O)C(=O)N(c2cc(OC3CCCC3)c(Cl)cc2F)C1=O [Compound 10],20
2,C#CCN1C(=O)COc2cc(F)c(N3C(=O)C(=O)N(CCC)C3=S)cc21 [Compound 25],30
3,C#CCN1C(=O)COc2cc(F)c(N3C(=O)C(=O)N(C)C3=O)cc21 [Compound 22],40

# Tested on: Foxtail, (green) (Setaria viridis)
# Assay: Herbicidal pre-emergence test, Foxtail (green)
# Type: in vivo
# Conditions: 1200 g/ha, scale of 0-100, 0 no activity, 100 total control, about two or four weeks after application
# Protocol: as §1
row,Structure (SMILES),Herbicidal Activity FOX (pre-emergence)
1,CCCCN1C(=O)C(=O)N(c2cc(OC3CCCC3)c(Cl)cc2F)C1=O [Compound 10],0
2,C#CCN1C(=O)COc2cc(F)c(N3C(=O)C(=O)N(CCC)C3=S)cc21 [Compound 25],100
3,C#CCN1C(=O)COc2cc(F)c(N3C(=O)C(=O)N(C)C3=O)cc21 [Compound 22],100

# Tested on: Foxtail, (green) (Setaria viridis)
# Assay: Herbicidal post-emergence test, Foxtail (green)
# Type: in vivo
# Conditions: 1200 g/ha, scale of 0-100, 0 no activity, 100 total control, about two or four weeks after application
# Protocol: as §1
row,Structure (SMILES),Herbicidal Activity FOX (post-emergence)
1,CCCCN1C(=O)C(=O)N(c2cc(OC3CCCC3)c(Cl)cc2F)C1=O [Compound 10],80
2,C#CCN1C(=O)COc2cc(F)c(N3C(=O)C(=O)N(CCC)C3=S)cc21 [Compound 25],60
3,C#CCN1C(=O)COc2cc(F)c(N3C(=O)C(=O)N(C)C3=O)cc21 [Compound 22],80

# Tested on: Nutsedge, (yellow) (Cyperus esculentus)
# Assay: Herbicidal pre-emergence test, Nutsedge (yellow)
# Type: in vivo
# Conditions: 1200 g/ha, scale of 0-100, 0 no activity, 100 total control, about two or four weeks after application
# Protocol: as §1
row,Structure (SMILES),Herbicidal Activity NUT (pre-emergence)
1,CCCCN1C(=O)C(=O)N(c2cc(OC3CCCC3)c(Cl)cc2F)C1=O [Compound 10],0
2,C#CCN1C(=O)COc2cc(F)c(N3C(=O)C(=O)N(CCC)C3=S)cc21 [Compound 25],80
3,C#CCN1C(=O)COc2cc(F)c(N3C(=O)C(=O)N(C)C3=O)cc21 [Compound 22],0

# Tested on: Nutsedge, (yellow) (Cyperus esculentus)
# Assay: Herbicidal post-emergence test, Nutsedge (yellow)
# Type: in vivo
# Conditions: 1200 g/ha, scale of 0-100, 0 no activity, 100 total control, about two or four weeks after application
# Protocol: as §1
row,Structure (SMILES),Herbicidal Activity NUT (post-emergence)
1,CCCCN1C(=O)C(=O)N(c2cc(OC3CCCC3)c(Cl)cc2F)C1=O [Compound 10],30
2,C#CCN1C(=O)COc2cc(F)c(N3C(=O)C(=O)N(CCC)C3=S)cc21 [Compound 25],40
3,C#CCN1C(=O)COc2cc(F)c(N3C(=O)C(=O)N(C)C3=O)cc21 [Compound 22],60

# Tested on: Perennial Ryegrass (Lolium perenne)
# Assay: Herbicidal pre-emergence test, Perennial Ryegrass
# Type: in vivo
# Conditions: 1200 g/ha, scale of 0-100, 0 no activity, 100 total control, about two or four weeks after application
# Protocol: as §1
row,Structure (SMILES),Herbicidal Activity RYE (pre-emergence)
1,CCCCN1C(=O)C(=O)N(c2cc(OC3CCCC3)c(Cl)cc2F)C1=O [Compound 10],0
2,C#CCN1C(=O)COc2cc(F)c(N3C(=O)C(=O)N(CCC)C3=S)cc21 [Compound 25],85
3,C#CCN1C(=O)COc2cc(F)c(N3C(=O)C(=O)N(C)C3=O)cc21 [Compound 22],0

# Tested on: Perennial Ryegrass (Lolium perenne)
# Assay: Herbicidal post-emergence test, Perennial Ryegrass
# Type: in vivo
# Conditions: 1200 g/ha, scale of 0-100, 0 no activity, 100 total control, about two or four weeks after application
# Protocol: as §1
row,Structure (SMILES),Herbicidal Activity RYE (post-emergence)
1,CCCCN1C(=O)C(=O)N(c2cc(OC3CCCC3)c(Cl)cc2F)C1=O [Compound 10],30
2,C#CCN1C(=O)COc2cc(F)c(N3C(=O)C(=O)N(CCC)C3=S)cc21 [Compound 25],0
3,C#CCN1C(=O)COc2cc(F)c(N3C(=O)C(=O)N(C)C3=O)cc21 [Compound 22],30

# Tested on: not given
# Assay: not given
# Conditions: not given
row,Structure (SMILES),melting point [°C]
1,"O=C1NC(=O)N(C2(OC3CC(F)CC3Cl)C=CC=CC2)C1=O (centres unmarked) [Compound 2, 1-(2-fluoro-4-chloro-5-cyclopentyloxy)phenyl-2,4,5-imidazolidinetrione]",130 to 140
2,"COCC1(N2C(=O)NC(=O)C2=O)C=CC=C(OC2CC(F)CC2Cl)C1 (centres unmarked) [Compound 5, 1-methoxymethyl-3-(2-fluoro-4-chloro-5-cyclopentyloxy)phenyl-2,4,5-imidazolidinetrione]",90 to 91
